Data on one molecule can be found in article PMC11474028, “Lipopeptide antibiotics disrupt interactions of undecaprenyl phosphate with UptA” (Proceedings of the National Academy of Sciences of the …, 2024).

One test concerns MraY. The class given is binding, Aquifex aeolicus. Conditions: MraY (2.5 µM) and C55-P (10 µM), molar ratio 1:4, pH 8.0 vs pH 5.0; negative control. An excerpt: UptA is a member of the DedA family of transporters whose cellular functions are potentially driven by proton-motive force and provide conditional fitness to bacteria under alkaline conditions ([25], [26], [36]). […] To this end, we equilibrated C55-P with UptA at a protein/ligand molar ratio of 1:4 in a buffer of the same composition but at pH 8.0 and 5.0. […] As a negative control, we tested for pH sensitivity of C55-P binding to MraY, the latter being the downstream enzyme in the peptidoglycan pathway that couples UM5 to C55-P. To this end, we equilibrated MraY and C55-P at a molar ratio of 1:4 in a buffer of pH 8.0 and pH 5.0.

For the next test, the target named is UptA (Bacillus subtilis, UniProt O31823). In words: Native MS competition of C55-P and phospholipids for UptA binding. Conditions: 4 µM UptA and 10 µM DOPG or DOPE, increasing C55-P up to 20 µM, on ice 15 min. Here is the method: To investigate whether or not C55-P can outcompete phospholipids in binding to UptA, we incubated solutions containing UptA-DOPG with increasing concentrations of C55-P. Spectra were recorded after aliquots of the solution were equilibrated on ice for 15 min. […] We therefore hypothesised that phospholipids should be unable to outcompete C55-P bound to UptA. To test this hypothesis, we incubated UptA with C55-P and then equilibrated aliquots with an increasing concentration of DOPG. […]
Chain of UptA (O31823 whole entry): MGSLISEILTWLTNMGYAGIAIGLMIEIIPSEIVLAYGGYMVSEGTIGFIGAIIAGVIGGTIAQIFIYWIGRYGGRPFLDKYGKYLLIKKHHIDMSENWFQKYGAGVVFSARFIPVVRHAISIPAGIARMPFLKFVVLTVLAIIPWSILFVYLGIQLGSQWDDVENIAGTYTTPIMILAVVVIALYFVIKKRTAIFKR
The chloroform layer containing the total lipids was recovered into a clean glass vial, and the organic solvent was evaporated in a SpeedVac for 16 h. Lipid film was resuspended 200 mM ammonium acetate, 0.05% LDAO (pH 8.0) to ~0.5 mg/mL for the binding experiments.
Sample preparation for native MS
Before measurements, the protein was buffer-exchanged into 0.05% LDAO, 200 mM ammonium acetate (“MS buffer”) at the desired pH using a centrifugal buffer exchange device (Micro Bio -Spin 6, Bio-Rad). Stock solutions of lipids were prepared from chloroform/methanol solution by evaporating aliquots of known volume in a SpeedVac. After drying, the lipid films were weighed and resuspended to a final concentration of 0.5 mM in 200 mM ammonium acetate (pH8) and 0.05% LDAO by vertexing. Stock solutions of 0.5 mM amphomycin, aspartocin D, daptomycin and bacitracin, were made in the same buffer. All experiments were repeated three times from newly prepared stock solutions.
About 3 μL protein aliquot was transferred into a gold-coated borosilicate capillary (Harvard Apparatus) and was mounted on the nano ESI source of a Q-Exactive hybrid quadrupole-Orbitrap mass spectrometer (Thermo Fisher Scientific, Bremen, Germany). The instrument settings were 1.2 kV capillary voltage, S-lens RF 200%, argon UHV pressure 3.3 × 10−10 mbar, the capillary temperature was set to 200 °C, and resolution of the instrument was set to 17,500 at a transie nt time of 64 ms. […] The resulting fragments were detected in the Orbitrap (R = 280,000 @ m/z 200), averaging ~500 transients to maximise the signal-to-noise ratio. […]

Entries after “also recorded” stand apart in the source; their conditions may differ.

Regarding `CC(C)=CCC/C(C)=C/CC/C(C)=C/CC/C(C)=C\CC/C(C)=C\CC/C(C)=C\CC/C(C)=C\CC/C(C)=C\CC/C(C)=C\CC/C(C)=C\CC/C(C)=C\COP(=O)(O)O` [C55-P, undecaprenyl phosphate], the “pH sensitivity of C55-P binding to MraY (in words)” value with MraY is “no pH-dependency in C55-P binding by MraY; also recorded: no significant difference in the intensity of C55-P bound to MraY at pH 8.0 and at pH 5.0”. Further, on UptA, the “displacement of phospholipid from UptA by C55-P (in words)” value is recorded as “C55-P has displaced most of DOPG from UptA; also recorded: C55-P effectively outcompete DOPE for UptA binding”.
